Test results taken from patent US4565823A, “Medical agent for suppressing arteriosclerosis” (Yamanouchi Pharmaceutical Co., Ltd., priority 1982, dated 1986).
Structures can show the parent of a compound that is named as a salt.

Experiments:
[1] = system: cholesterol levels in the serum; assay: Effect on cholesterol levels in the serum (normal rats); assay type: in vivo; conditions: oral
[2] = system: cholesterol levels in the serum; assay: Effect on cholesterol levels in the serum (hypercholesterolemia rats); assay type: in vivo, Male Sprague-Dawley rats; conditions: for HDL chol. / HDL chol. / LDL + VLDL chol. / LDL + VLDL chol. / T. chol. (total cholesterol): oral; for effect on HDL cholesterol (words) / effect on total cholesterol in the serum (words): rat, in vivo
Procedure: Male Sprague-Dawley rats (JCL®, Nippon Clea Co. Ltd., Tokyo, Japan) weighing 90-100 g were fed semipurified diet containing 10% coconut oil, 1.5% cholesterol and 0.5% cholic acid. Three days after the start of feeding, the rats are allocated at random by the body weight to multiple groups each consisting 6-8 rats. On day 4 through 7, the drug suspension in 0.5% methylcellulose was orally given daily. […] Following the final dose, the rats were fasted overnight (approximately 16 hours). […] Serum was obtained by centrifugation at 1,600 xg for 15 min and stored at 4° C. in plastic tubes. The amount of total cholesterol and HDL cholesterol in the serum were determined. The determination of the total cholesterol was practiced by the method described in Schettler, G & Nussel; "Arbeitsmed. Sozialmed. Praventivmed." 10, 25 (1975) and the determination of HDL cholesterol was practiced by the method described in T. T. Ishikawa et al; "Lipids", 11, 628 (1976).

[3] = acute toxicity, mice (ICR); conditions: mouse, in vivo
Text: (§1) Nicardipine hydrochloride is a low toxicity compound, and this fact is confirmed by acute toxicity examination experiment.

[4] = acute toxicity, rats (Wister); conditions: rat, in vivo
Text: as §1

[5] = acute toxicity, rats (S.D.); conditions: rat, in vivo
Text: as §1

[6] = acute toxicity, dog (mongrel); assay type: in vivo; conditions: in vivo, iv, only a range in parentheses printed
Text: as §1

dog (mongrel) = assay: acute toxicity, dog (mongrel); assay type: in vivo; conditions: p.o.
Text: as §1

mice, rats, dog = assay: acute toxicity examination (overall statement); conditions: in vivo
Text: as §1

[7] = system: aortic smooth muscle cell; assay: 12-HETE-associated aortic smooth muscle cell migration, filter membrane technique in modified Boyden chambers; assay type: cell-based; conditions: 6×10^-15 g/ml 12-HETE, 37° C.
Text: The effect of nicardipine on 12-HETE-associated aortic smooth muscle cell migration can be examined by measuring the migration of aortic smooth muscle cell by filter membrane technique in modified Boyden chambers as follows:
5×10^5 of the smooth muscle cells were suspended in Ca^2+ -containing culture medium supplemented with 5% calf serum containing various concentration of nicardipine. Control cultures contained the same volume, a final concentration of 1% (v/v), of […]. The suspensions of the smooth muscle cells were placed in the upper compartment of the chamber. The lower compartment of the chamber contained the same culture medium supplemented with 6×10^-15 g/ml of 12-HETE and 5% calf serum containing no nicardipine. The cells was incubated at 37° C. As control, medium with the same concentration of solvent (1% ethanol) containing no 12-HETE was used. Smooth muscle cell migration was quantitated microscopically by counting the number of cells that migrated into the filter. In each experiment, 10 high-power fields in 5 replicate cultures were examined to determine the number of cells that had migrated into the filers. Cell migration was expressed as cells/10 HPF (high-power fields) in FIG. 1.

[8] = hypercholesterolemia rats, 10 mg/kg
[9] = hypercholesterolemia rats, 30 mg/kg
[10] = hypercholesterolemia rats, 100 mg/kg
[11] = listed as nicardipine hydrochloride
[12] = hypercholesterolemia rats, 50 mg/kg
[13] = hypercholesterolemia rats, 200 mg/kg

With `COC(=O)C1=C(C)NC(C)=C(C(=O)OCCN(C)Cc2ccccc2)C1c1cccc([N+](=O)[O-])c1` (centres unmarked) [Nicardipine hydrochloride] the HDL chol. ([1]; 10 mg/kg) was 29.6 ± 1.4 mg/dL, the “HDL chol. / LDL + VLDL chol.” value ([1]; 10 mg/kg) was 3.020 and the “LDL + VLDL chol.” value ([1]; 10 mg/kg) was 9.8 ± 1.9 mg/dL. The “T. chol. (total cholesterol)” value ([1]; 10 mg/kg) was 39.4 ± 2.0 mg/dL, the HDL chol. ([1]; 30 mg/kg) was 37.2 ± 2.7 mg/dL and the “HDL chol. / LDL + VLDL chol.” value ([1]; 30 mg/kg) was 10.941. The “LDL + VLDL chol.” value ([1]; 30 mg/kg) was 3.4 ± 1.6 mg/dL, the “T. chol. (total cholesterol)” value ([1]; 30 mg/kg) was 41.3 ± 4.7 mg/dL and the HDL chol. ([1]; 100 mg/kg) was 39.8 ± 4.3 mg/dL. The “HDL chol. / LDL + VLDL chol.” value ([1]; 100 mg/kg) was 14.214, the “LDL + VLDL chol.” value ([1]; 100 mg/kg) was 2.8 ± 1.2 mg/dL and the “T. chol. (total cholesterol)” value ([1]; 100 mg/kg) was 40.8 ± 5.9 mg/dL. The “effect on LDL chol” value ([2]; hypercholesterolemia rats) was “reduces remarkably LDL chol”, the HDL chol. [2, 8] was 27.0 ± 1.8 mg/dL and the “HDL chol. / LDL + VLDL chol.” value [2, 8] was 0.090. For the same compound, the “LDL + VLDL chol.” value [2, 8] was 299.4 ± 52.8 mg/dL, the “T. chol. (total cholesterol)” value [2, 8] was 326.4 ± 52.0 mg/dL and the HDL chol. [2, 9] was 28.0 ± 0.5 mg/dL. For the same compound, the “HDL chol. / LDL + VLDL chol.” value [2, 9] was 0.067, the “LDL + VLDL chol.” value [2, 9] was 420.6 ± 53.2 mg/dL and the “T. chol. (total cholesterol)” value [2, 9] was 448.6 ± 52.8 mg/dL. For the same compound, the HDL chol. [2, 10] was 47.0 ± 1.8 mg/dL, the “HDL chol. / LDL + VLDL chol.” value [2, 10] was 0.250 and the “LDL + VLDL chol.” value [2, 10] was 188.0 ± 26.4 mg/dL. The “T. chol. (total cholesterol)” value [2, 10] was 246.0 ± 24.6 mg/dL, the “effect on HDL cholesterol (words)” value [2, 11] was “increases selectively HDL chol” and the “effect on total cholesterol in the serum (words)” value [2, 11] was “reduce the amount of total cholesterol in the serum”. It also gave an LD50 ([3]; iv, mice (ICR) female) of 19.9 mg/kg, an LD50 ([3]; po, mice (ICR) female) of 650 mg/kg and an LD50 ([3]; po, mice (ICR) male) of 634 mg/kg. The LD50 ([3]; sc, mice (ICR) female) was 710 mg/kg, the LD50 ([3]; sc, mice (ICR) male) was 540 mg/kg and the LD50 ([4]; iv, rats (Wister) female) was 17.2 mg/kg. For the same compound, the LD50 ([4]; iv, rats (Wister) male) was 15.5 mg/kg, the LD50 ([4]; po, rats (Wister) female) was 184 mg/kg and the LD50 ([4]; po, rats (Wister) male) was 187 mg/kg. It also gave an LD50 ([4]; sc, rats (Wister) female) of 606 mg/kg, an LD50 ([4]; sc, rats (Wister) male) of 677 mg/kg and an LD50 ([5]; iv, rats (S.D.) female) of 25 mg/kg. The LD50 ([5]; iv, rats (S.D.) male) was 18.1 mg/kg, the LD50 ([5]; po, rats (S.D.) female) was 557 mg/kg and the LD50 ([5]; po, rats (S.D.) male) was 643 mg/kg. The LD50 [6] was 5 to 8.1 mg/kg, the MLD (dog (mongrel)) was over 60 mg/kg and the “acute toxicity” value (mice, rats, dog) was “low toxicity”.
In the case of `CCOC(=O)C(C)(C)Oc1ccc(Cl)cc1` [clofibrate], the HDL chol. ([1]; 50 mg/kg) is reported as 26.5 ± 2.5 mg/dL, the “HDL chol. / LDL + VLDL chol.” value ([1]; 50 mg/kg) is reported as 1.828 and the “LDL + VLDL chol.” value ([1]; 50 mg/kg) is reported as 14.5 ± 1.0 mg/dL. For the same compound, the “T. chol. (total cholesterol)” value ([1]; 50 mg/kg) was 42.7 ± 2.3 mg/dL, the HDL chol. ([1]; 100 mg/kg) was 30.3 ± 3.1 mg/dL and the “HDL chol. / LDL + VLDL chol.” value ([1]; 100 mg/kg) was 3.258. The “LDL + VLDL chol.” value ([1]; 100 mg/kg) was 9.3 ± 1.5 mg/dL, the “T. chol. (total cholesterol)” value ([1]; 100 mg/kg) was 39.7 ± 2.7 mg/dL and the HDL chol. ([1]; 200 mg/kg) was 22.8 ± 2.7 mg/dL. For the same compound, the “HDL chol. / LDL + VLDL chol.” value ([1]; 200 mg/kg) was 1.664, the “LDL + VLDL chol.” value ([1]; 200 mg/kg) was 13.7 ± 2.1 mg/dL and the “T. chol. (total cholesterol)” value ([1]; 200 mg/kg) was 36.5 ± 4.4 mg/dL. The HDL chol. [2, 12] was 13.8 ± 1.0 mg/dL, the “HDL chol. / LDL + VLDL chol.” value [2, 12] was 0.036 and the “LDL + VLDL chol.” value [2, 12] was 379.6 ± 92.6 mg/dL. For the same compound, the “T. chol. (total cholesterol)” value [2, 12] was 412.0 ± 77.8 mg/dL, the HDL chol. [2, 10] was 21.0 ± 2.5 mg/dL and the “HDL chol. / LDL + VLDL chol.” value [2, 10] was 0.100. The “LDL + VLDL chol.” value [2, 10] was 210.4 ± 55.8 mg/dL, the “T. chol. (total cholesterol)” value [2, 10] was 231.0 ± 54.2 mg/dL and the HDL chol. [2, 13] was 19.3 ± 2.8 mg/dL. The “HDL chol. / LDL + VLDL chol.” value [2, 13] was 0.065, the “LDL + VLDL chol.” value [2, 13] was 298.0 ± 66.2 mg/dL and the “T. chol. (total cholesterol)” value [2, 13] was 317.4 ± 64.4 mg/dL.
With `COC(=O)C1=C(C)NC(C)=C(C(=O)OCCN(C)Cc2ccccc2)C1c1cccc([N+](=O)[O-])c1` (centres unmarked) [nicardipine] the “effect on HDL cholesterol (words)” value [2] was “elevating high density lipoprotein (HDL) selectivity”, the “effect on total cholesterol in the serum (words)” value [2] was “reducing cholesterol level increased in the serum” and the “inhibition of 12-HETE-associated aortic smooth muscle cell migration” value [7] was “inhibits 12-HETE-associated aortic smooth muscle cell migration (aortic smooth muscle cell migration induced by 12-L-hydroxy-5,8,10,14-eicosotetraenoic acid) significantly”.
In the case of `COc1ccc(Cc2nccc3cc(OC)c(OC)cc23)cc1OC` [papaverine], the LD50 ([3]; iv, mice (ICR) male) is reported as 27 mg/kg and the LD50 ([4]; iv, rats (Wister) male) is reported as 13.3 mg/kg.
